Patent publication US12077495B2 (priority 2018, dated 2024)

Columns and labels:
MCP-1, IL-6 and IL-1a = assay: Quantification of cytokines in plasma after photothrombotic focal ischemia; assay type: in vivo, mice; conditions: 4 hrs after focal ischemia
Method: Detection of MCP-1 (monocyte chemotactant protein-1), IL-6 (interleukin-6) and IL-1a (interleukin-1a) was performed using a LEGENDplex assay kit according to the manufacturers' instructions (BioPlex, BioLegend, San Diego, CA, USA).
To evaluate the inflammatory response at early time points, blood samples were collected 4 hrs after induction of a focal ischemic event.

GFAP, CD14 and MMP9 mRNA = assay: qPCR of molecular markers in peri-infarct tissue after photothrombotic focal ischemia; assay type: in vivo, mice; conditions: 3 days post-stroke
Method: Tissue from the peri-infarct area was collected and snap-frozen 12-72 hrs post stroke and RNA was extracted using a RNA mini kit (Qiagen) following the instructions from the manufacturer. Extracted RNA was treated with DNAse using Turbo DNA-free kit (Ambion), all according to the manufacturer's protocol. The reverse transcription was performed using gScript™ cDNA SuperMix (Quanta Biosciences, Gaithersburg, MD, USA) on a standard PCR machine (25° C. for 5 min, 42° C. for 30 min, 85° C. for 5 min) and cDNA stored at −20° C. until further processing.
qPCR was performed in 96-well plates (Agilent Technologies, Santa Clara, CA, USA) mixing PerfeCTa SYBR Green FastMix (Quanta Biosciences), nuclease free water (Qiagen, West Sussex, UK), and primers (TAG Copenhagen A/S (Copenhagen, Denmark). The PCR was performed with an initial denaturation step of 95° C. for 30 s, followed by 40 cycles of 5 s at 95° C., 60° C. for 15 s and 72° C. for 10 s. To assure single-product amplification, a dissociation curve analysis was performed consisting of 60 s at 95° C., 30 s at 55° C. and 30 s at 95° C. The qPCR was performed using the Agilent Mx3005P qPCR system (Agilent Technologies), and the corresponding MxPro software was used to determine the Ct values. The ΔCt values were calculated using 2 (Reference Ct−Target Ct).
To investigate the protective mechanisms against brain damage following a focal ischemic insult, mRNA expression levels of the markers GFAP, CD14 and MMP9 were measured in the brain tissue surrounding the ischemic core 3 days post-stroke.

[1] = test system: proton-coupled transporters (MCTs) endogenously present in tsA201 cells; assay: MCT-mediated uptake in tsA201 cells (BCECF pH-sensitive dye); assay type: cell-based; conditions: 2 min, read-out: EC50, concentration-dependent decrease in intracellular pH
Method: Uptake was measured using the cell-permeable pH-sensitive dye 2′,7′-Bis(2-carboxyethyl)-5(6)-carboxyfluorescein acetoxymethyl ester (BCECF-AM) (Molecular Probes), utilizing the endogenous expression of MCTs in tsA201 cells. The day before the assay, cells were plated (50,000 cells/well) in black poly-D-lysin-coated 96-well plates with clear bottom (VWR, Radnor, PA, USA). […] Cells were then washed twice with 100 μl buffer and the cell plate assayed at 37° C. in a FlexStation 3 reader (Molecular Devices).
Cells (tsA201; related to HEK293-T) known to express MCTs were grown in 96-well plates and exposed to compounds and pH-decreased measured for 2 min.

GABAB receptor [2] = target: T1, GABAB receptor (Rattus norvegicus, UniProt Q9Z0U4); conditions: cited from earlier work
T1 construct: using crude synaptic membranes prepared from rat cortex; from tissue; host or cells: rat cortex, crude synaptic membranes
T1 sequence (Q9Z0U4 17-960 limits assumed): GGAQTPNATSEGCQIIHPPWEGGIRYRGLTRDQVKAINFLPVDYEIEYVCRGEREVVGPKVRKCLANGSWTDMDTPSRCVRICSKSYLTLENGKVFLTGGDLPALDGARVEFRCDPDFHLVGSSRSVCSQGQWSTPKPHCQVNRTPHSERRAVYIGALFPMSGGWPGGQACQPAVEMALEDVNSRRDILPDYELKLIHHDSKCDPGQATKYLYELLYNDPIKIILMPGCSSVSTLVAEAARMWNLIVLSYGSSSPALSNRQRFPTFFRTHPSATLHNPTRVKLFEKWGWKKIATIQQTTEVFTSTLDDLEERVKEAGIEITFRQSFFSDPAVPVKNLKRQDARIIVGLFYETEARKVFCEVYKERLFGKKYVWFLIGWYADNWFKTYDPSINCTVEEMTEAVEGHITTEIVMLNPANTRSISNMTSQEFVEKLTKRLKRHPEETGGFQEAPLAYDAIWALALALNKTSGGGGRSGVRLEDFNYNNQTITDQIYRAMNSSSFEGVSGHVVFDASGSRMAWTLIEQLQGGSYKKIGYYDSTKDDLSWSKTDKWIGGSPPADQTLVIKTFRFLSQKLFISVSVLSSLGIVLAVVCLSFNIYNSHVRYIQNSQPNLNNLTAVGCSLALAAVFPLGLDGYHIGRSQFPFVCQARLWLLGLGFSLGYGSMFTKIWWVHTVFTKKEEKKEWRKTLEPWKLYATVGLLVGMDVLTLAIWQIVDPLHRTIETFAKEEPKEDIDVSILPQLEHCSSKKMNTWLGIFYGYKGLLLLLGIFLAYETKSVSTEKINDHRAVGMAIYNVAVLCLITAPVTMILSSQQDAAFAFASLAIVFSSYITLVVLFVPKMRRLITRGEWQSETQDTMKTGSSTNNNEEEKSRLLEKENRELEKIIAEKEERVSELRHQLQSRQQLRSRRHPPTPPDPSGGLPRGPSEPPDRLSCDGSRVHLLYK
T1 sequence (O88871 41-940 partner): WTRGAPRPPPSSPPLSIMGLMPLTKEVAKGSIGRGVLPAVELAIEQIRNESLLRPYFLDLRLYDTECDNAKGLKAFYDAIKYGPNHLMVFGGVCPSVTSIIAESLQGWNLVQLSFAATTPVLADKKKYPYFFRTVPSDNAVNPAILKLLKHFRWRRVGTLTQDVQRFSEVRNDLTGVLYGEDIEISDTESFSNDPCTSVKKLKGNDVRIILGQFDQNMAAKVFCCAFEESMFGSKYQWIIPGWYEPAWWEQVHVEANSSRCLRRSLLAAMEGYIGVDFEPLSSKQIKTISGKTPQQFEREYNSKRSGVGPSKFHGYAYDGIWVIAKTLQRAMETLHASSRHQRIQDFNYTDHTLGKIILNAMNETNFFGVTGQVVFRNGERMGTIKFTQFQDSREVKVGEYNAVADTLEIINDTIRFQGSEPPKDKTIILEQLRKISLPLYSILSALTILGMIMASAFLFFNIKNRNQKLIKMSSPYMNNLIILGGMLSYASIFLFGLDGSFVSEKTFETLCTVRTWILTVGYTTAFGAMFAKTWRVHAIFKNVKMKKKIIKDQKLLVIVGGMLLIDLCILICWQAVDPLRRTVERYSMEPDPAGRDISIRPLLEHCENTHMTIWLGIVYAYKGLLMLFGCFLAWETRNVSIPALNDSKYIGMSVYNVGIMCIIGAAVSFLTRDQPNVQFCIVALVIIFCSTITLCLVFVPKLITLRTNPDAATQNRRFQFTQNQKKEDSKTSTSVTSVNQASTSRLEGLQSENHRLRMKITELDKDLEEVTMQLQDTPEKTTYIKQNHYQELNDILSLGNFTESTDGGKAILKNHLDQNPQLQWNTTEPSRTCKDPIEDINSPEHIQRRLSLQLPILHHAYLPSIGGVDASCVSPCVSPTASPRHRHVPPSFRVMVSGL

CAMK2A = target: T2, CAMK2A (Rattus norvegicus, UniProt P11275); assay: biochemical; assay type: binding; conditions: whole cell lysates of CAMK2A-transfected HEK293T cells
T2 construct: host or cells: HEK293T
T2 sequence (P11275 whole entry): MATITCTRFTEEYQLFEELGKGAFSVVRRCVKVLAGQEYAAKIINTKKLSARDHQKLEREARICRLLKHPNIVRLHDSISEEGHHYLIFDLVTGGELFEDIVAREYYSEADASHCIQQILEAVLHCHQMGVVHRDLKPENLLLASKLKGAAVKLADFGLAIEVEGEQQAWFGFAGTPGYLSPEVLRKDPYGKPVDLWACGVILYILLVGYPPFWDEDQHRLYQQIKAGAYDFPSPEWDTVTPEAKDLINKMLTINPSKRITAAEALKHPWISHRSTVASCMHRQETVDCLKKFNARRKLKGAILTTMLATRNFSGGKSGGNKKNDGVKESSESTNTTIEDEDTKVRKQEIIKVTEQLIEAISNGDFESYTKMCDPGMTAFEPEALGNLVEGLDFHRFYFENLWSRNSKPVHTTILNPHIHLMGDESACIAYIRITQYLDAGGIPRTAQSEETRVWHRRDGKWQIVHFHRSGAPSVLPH
Method: Cells were transfected with rat CAMK2A (Origene construct RR201121) or rat CAMK2B (Origene construct RR200520) using PolyFect (Qiagen, West Sussex, UK) according to the manufacturer's protocol. Whole cell homogenates were prepared 48 hr post-transfection by washing the cells with ice-cold 1×PBS and harvesting by scraping. Cells were collected and centrifuged for 10 min at 1000×g. Cell pellets were resuspended in ice-cold 1×PBS and homogenized using 2×1 mm zirkonium beads in a bullet blender for 20 s at max speed (NextAdvance, NY, USA). Homogenates were cleared by centrifugation (10 min, 4° C., 14.000×g). Protein concentration was determined using the Bradford protein assay. 150-200 μg protein was incubated with 5 nM ^3H-A and test compound in 1 ml total volume for 1 hr at 0-4° C. […] Proteins were then precipitated by addition of ice-cold acetone (4× of the assay volume), vortexing and incubation at −20° C. for 1 hr. Proteins were filtrated rapidly through GF/C unifilters (Whatman) and washed. The dried filters were added scintillation liquid and radioactivity measured on a Tricarb 2100 Scintillation counter (Packard).
A) Principle of photoaffinity labelling workflow. […] After introduction of biotin through a Staudinger-Bertozzi ligation to EZ-Link™ Phosphine-PEG3-Biotin (ThermoFisher Scientific), the biotin-labelled proteins were affinity-purified and subjected to LC-MS/MS analysis. […] C)^3H-A binding to cortical membranes from CAMK2A and CAMK2B knock-out mouse brains.
Human/rat CAMK2A expressed in HEK cells was assayed in an in-house established ^3H-A filtration binding assay performed on whole cell lysates of CAMK2A-transfected HEK293T cells.

GABAB receptor [3] = target: T1, GABAB receptor; assay: 3H-GABA binding assay for GABAB, rat cortex membranes; conditions: up to concentrations of 1 mM
Method: Following incubation by rapid filtration through GF/C unifilters (PerkinElmer, Boston, MA, USA), using a 96-well Packard cell-harvester (PerkinElmer) and three fast washes with ice-cold binding buffer, microscint scintillation fluid (PerkinElmer) was added to the dried filters, and the amount of filter-bound radioactivity was quantified in a Packard TopCount microplate scintillation counter (PerkinElmer). […] The binding reactions were terminated by rapid filtration through GF/C filters (Whatman), soaked in 0.1% polyethylene imine, using a Brandell 48-well harvester and rapid washing with ice-cold binding buffer. […] Data are presented as % specific binding (of control), and IC50 or Ki values calculated by means of non-linear regression curve-fitting and the Cheng-Prusoff equation, respectively.

[4] = test system: wild-type and GABAB receptor knock-out mice; assay: Temperature recording (hypothermia) in mice; assay type: in vivo; conditions: 500 mg/kg i.p.; wild-type or GABAB knock-out mice
Method: Mice were pre-treated with saline injections (0.9% saline) i.p. for 4 days prior to the experiment to minimize stress on the day of the experiment. Experiments were conducted in a quiet room, in which mice were left undisturbed for at least two hrs prior to the experiment. After the i.p. injections, mice were left in their home cages for two hrs, had core body temperature recorded, and were then euthanized. The core body temperature was measured rectally by a thermometer (model DM 852; ELLAB Instruments; Copenhagen, Denmark) via a lubricated thermistor probe (model PRA-22002-A, 2.2 mm diameter; ELLAB Instruments). Mice were held at the base of the tail and measured until a stable temperature measurement was obtained.
By contrast, compound A had no effect on hypothermia in either wild-type or knock-out mice.

[5] = 175 mg/kg 30 min after ischemia

O=C(O)C1=CC(O)CC1 (stereo not drawn) [Compound A, 3-hydroxycyclopent-1-enecarboxylic acid]
MCP-1 plasma levels (MCP-1, IL-6 and IL-1a): tendency towards a decrease
IL-1a plasma levels (MCP-1, IL-6 and IL-1a; vs saline): did not significantly affect
IL-6 plasma levels (MCP-1, IL-6 and IL-1a; vs saline): significantly lowered
MMP9 mRNA levels (GFAP, CD14 and MMP9 mRNA; 17.5 mg/kg, vs saline): significantly lower
CD14 mRNA levels (GFAP, CD14 and MMP9 mRNA; [5]): markedly lowered
MMP9 mRNA levels (GFAP, CD14 and MMP9 mRNA; [5]): markedly lowered
GFAP mRNA levels (GFAP, CD14 and MMP9 mRNA; peri-infarct tissue, vs saline): not different
EC50 [1]: 8.2 mM
affinity for the GABAB binding site (GABAB receptor [2]): does not display any affinity
Ki (CAMK2A): 0.00195 mM
inhibition of 3H-GABA binding to GABAB receptor (GABAB receptor [3]): no ability to compete
effect on body temperature (hypothermia) [4]: no effect
